Test results reported in patent publication US8377918B2 (ACC Therapeutics Inc, priority 2005, dated 2013).

What was measured:
[1] = system: VEGF expression in A2780/CP70 cells; test: VEGF ELISA of supernatants, A2780/CP70; type: cell-based, human; details: A2780/CP70, 15 h
Experimental: FIG. 6. […] OVCAR-3 and A2780/CP70 cells were plated in 12-well plates and cultured to 90% confluence. […] The concentrations of VEGF in the supernatants were determined by ELISA method as described in Materials and Methods. The data are mean±SE from three independent experiments and each experiment was performed with triplicate cultures.

[2] = system: VEGF transcriptional activity in A549 cells; test: VEGF reporter luciferase assay in A549; type: cell-based, human; details: A549, 5, 10, and 20 μM, 24 h
Experimental: FIG. 13. […] A549 cells were seeded on a six-well plate. When they reached 60 to 70% confluence, the cells were transfected using Lipofectamine reagent. A, A549 cells were cotransfected with 1 μg of pGL-StuI VEGF reporter and 0.3 μg of β-gal plasmid as described. […] Cells were then lysed and the supernatants were used to assay Luc and β-gal activities. The relative luciferase activities in the cell extracts were assayed by the ratio of Luc/β-gal activity and normalized to the value in the solvent DMSO control. B, cells were cotransfected with 1 μg of pMAP11wt VEGF reporter and 0.3 μg of β-gal plasmid as described. Cells were treated with different doses of apigenin as described above. C, the cells were transfected with pMAP11mut VEGF reporter (with 3-bp substitution of pMAP11wt), and treated as above “B”.

normal human cells = test: Apoptosis of normal human cells (GM847 fibroblasts); type: cell-based; details: at up to 40 μM apigenin
Experimental: FIG. 1. […] (A) A2780/CP70 cells and human fibroblast GM847 cells were seeded in 96-well plate at 4×10^3 cells per well and incubated overnight. […] The cells were incubated for 24 h. Cell proliferation was determined by MTT reduction. […] Cells were trypsinized, harvested, washed once with PBS buffer, and stained using the Annexin-V-Folus Kit as per the manufacture's instructions. […] After incubation, all cells were collected and total DNA was isolated. Eight (8) μg of DNA was resolved on 1.8% agarose gel. […] (D) Treatment of GM847 cells was the same as that of 5D. […] Cleavage of caspase-3 and PARP was detected by western-blot.

O=c1cc(-c2ccc(O)cc2)oc2cc(O)cc(O)c12 [apigenin, 4′,5,7,-trihydroxyflavone]
effect on expression of VEGF [1]: inhibited the expression of VEGF
effect on VEGF transcriptional activation [2]: dramatically suppresses
induction of apoptosis of normal human cells (normal human cells): did not induce apoptosis
